Laboratory results as given in patent US20260284011A1, “COMPOUNDS FOR RESTORING SUSCEPTIBILITY TO BETA-LACTAM ANTIBIOTICS” (UNIVERSITY OF NOTRE DAME DU LAC, priority 2023, published 2026).

Tests used:
[1] = target: BlaR (Staphylococcus aureus, UniProt P18357); assay: Live-cell fluorescent assay for BlaR inhibition (Venus reporter); assay type: cell-based, S. aureus NRS144pCN52RI-Venus; details: compound at 100 mg/L^−1; CBAP 10 mg·L^−1; fluorescence after 2 h
Text: Live-Cell Fluorescent Assay in Discovery and Mechanism of Action. We conceived of fluorescent constructs in the bla operon, for the purpose of screening (FIG. 2a). We removed the gene for the β-lactamase (blaZ) and put in its place individually the genes for the Green Fluorescent Protein (GFP), Venus (a yellow-fluorescent protein) or mCherry (a red-fluorescent protein) in the template plasmid pCN52. The three plasmids were named pCN52RI, pCN52RI-Venus and pCN52RI-mCherry, respectively. The genes for the fluorescent proteins were transcribed under the promoter of the blaZ gene and were regulated by the proteins BlaR and BlaI, as is the case for the wild-type bla operon.
We transformed separately S. aureus NRS144—a laboratory strain that accepts a foreign gene and harbors neither the bla nor the mec operons—with each of these plasmids. […] When induced, the fluorescent protein is produced and is detected (akin to expression of the resistance genes blaZ or mecA in typical MSSA and MRSA). […] The transformed strains were grown in tryptic soy broth medium for overnight culture and strain maintenance and incubated in cation-adjusted Mueller-Hinton broth medium for inhibitor screening in a 96-well microplate format. The culture without CBAP addition was the negative control. In order to select a desirable reporter construct, we compared the intensity of the fluorescence produced from each construct at the wavelengths given in FIG. 2a using the Cytation-5 multi-mode microplate reader. Among the three constructs, pCN52RI-Venus produced the best fluorescence intensity and pCN52RI-mCherry was the second best (FIG. 4).
(§1) The collection of the 100 compounds from the in-silico search was screened against S. aureus NRS144pCN52RI-Venus. The screening strategy was as follows. Bacteria grown to OD600 of 0.25 were exposed concurrently to CBAP (10 mg·L^−1) and the test compound (100 mg·L^−1). Fluorescence was recorded after two hours of incubation. OD600 values were also recorded to identify compounds with inherent antibacterial activity. Compound 1 (Chart 1) emerged—82% diminished fluorescence as an indication of the extent of BlaR inhibition—as a suitable template for structure elaboration. This effort led to the synthesis of several dozen benzimidazole and imidazole compounds. The progression of the iterative design is depicted in Chart 1 for four compounds, culminating in 4. […] The X-ray structures for the complexes of compounds 2 (non-covalent) and 4 (covalent) with the BlaR sensor domain are shown respectively in FIG. 2b (2.0 Å resolution) and FIG. 2c (1.97 Å resolution). Compound 4 makes a covalent bond with the catalytic Ser389 and creates a network of hydrogen bonds with the BlaR active site (FIG. 2c).
(§2) Fluorescent assay for screening of BlaR potential inhibitors. A 3-mL portion of lysogeny broth (LB) medium was inoculated with NRS144pCN52RI Venus from frozen stocks and grown overnight at 37° C. The overnight culture was then diluted 1:150 fold with fresh LB containing […] of erythromycin and incubated at 37° C. to an OD600 of 0.3, at which point fluorescence was induced by the addition of CBAP to a final concentration of 10 μg·mL^−1. The culture was aliquoted (99 L) into 96-well plate and 1 L of inhibitor solution (1 mg·mL^−1 in DMSO) was added to each well. Negative control (DMSO without CBAP) and positive control (CBAP without inhibitor) were included. The plate was incubated at 30° C. for 2 h with intermittent shaking. Fluorescence and OD600 measurements were taken by a Cytation-5 multimode microplate reader. Percent inhibition of BlaR and bacterial growth were calculated using absorbance unit (AU) and OD600 values of each sample entered into this formula: […]

[2] = test system: S. aureus NRS144pCN52RI-Venus; assay: Bacterial growth inhibition (OD600) in the fluorescent screening assay; assay type: cell-based, Staphylococcus aureus; details: compound at 100 mg/L^−1; OD600 after 2 h
Method: as §1, §2

[3] = test system: S. aureus; assay: Potentiation of β-lactams by cyclic boronate β-lactamase inhibitors; assay type: cell-based, Staphylococcus aureus

Sequence of BlaR (P18357 whole entry): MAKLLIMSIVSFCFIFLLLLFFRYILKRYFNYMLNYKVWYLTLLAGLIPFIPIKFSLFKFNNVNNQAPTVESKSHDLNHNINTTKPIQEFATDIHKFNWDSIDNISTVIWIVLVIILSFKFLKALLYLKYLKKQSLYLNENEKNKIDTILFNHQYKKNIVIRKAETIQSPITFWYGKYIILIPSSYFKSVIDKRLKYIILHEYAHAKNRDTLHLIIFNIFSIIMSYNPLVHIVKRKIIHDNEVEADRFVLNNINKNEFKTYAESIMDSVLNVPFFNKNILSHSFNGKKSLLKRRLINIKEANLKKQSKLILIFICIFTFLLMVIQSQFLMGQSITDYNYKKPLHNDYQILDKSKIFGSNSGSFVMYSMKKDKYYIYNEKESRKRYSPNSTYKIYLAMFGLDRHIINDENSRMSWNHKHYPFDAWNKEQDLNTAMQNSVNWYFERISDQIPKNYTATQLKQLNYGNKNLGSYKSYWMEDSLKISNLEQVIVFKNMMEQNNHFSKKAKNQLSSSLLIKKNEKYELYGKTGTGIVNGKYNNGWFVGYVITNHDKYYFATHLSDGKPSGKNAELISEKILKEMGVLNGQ

Compound | % Inhibition of BlaR [1] | % Inhibition of bacterial growth [2] | potentiation of the anti-S. aureus activities of MEM, OXA, FOX and CPT [3]
O=S(=O)(O)c1nc2ccc(CO)cc2n1Cc1ccc(C(F)(F)F)cc1C(F)(F)F [Compound 18] | 97% | 0% | –
N#Cc1ccc2nc(N)n(Cc3ccc(C(F)(F)F)cc3C(F)(F)F)c2c1 [Compound 19] | 55% | 0% | –
Nc1nc2ccc(CO)cc2n1Cc1ccc(C(F)(F)F)cc1C(F)(F)F [Compound 21] | 89% | 0% | –
O=C(/C=C/c1ccc(F)cc1)NCc1ccc2nc(S)n(Cc3ccc(C(F)(F)F)cc3C(F)(F)F)c2c1 [Compound 23] | 76% | 70% | –
O=C(/C=C/c1ccc(Cl)cc1Cl)NCc1ccc2nc(S)n(Cc3ccc(C(F)(F)F)cc3C(F)(F)F)c2c1 [Compound 25] | 75% | 50% | –
O=C(/C=C/c1ccc(F)cc1)NCc1ccc2nc(S(=O)(=O)O)n(Cc3ccc(C(F)(F)F)cc3C(F)(F)F)c2c1 [Compound 26] | 99% | 100% | –
O=C(/C=C/c1ccc(C(F)(F)F)cc1F)NCc1ccc2nc(S)n(Cc3ccc(C(F)(F)F)cc3C(F)(F)F)c2c1 [Compound 27] | 79% | 55% | –
O=C(/C=C/c1ccc(C(F)(F)F)cc1F)NCc1ccc2nc(S(=O)(=O)O)n(Cc3ccc(C(F)(F)F)cc3C(F)(F)F)c2c1 [Compound 28] | 92% | 100% | –
O=C(CCc1ccc(F)cc1)NCc1ccc2nc(S)n(Cc3ccc(C(F)(F)F)cc3C(F)(F)F)c2c1 [Compound 29] | 59% | 0% | –
O=C(CCc1ccc(F)cc1)NCc1ccc2nc(S(=O)(=O)O)n(Cc3ccc(C(F)(F)F)cc3C(F)(F)F)c2c1 [Compound 30] | 86% | 0% | –
C[N+]12CC(=O)O[B-]1(CSc1nc3ccc(C#N)cc3n1Cc1ccc(C(F)(F)F)cc1C(F)(F)F)OC(=O)C2 (stereo not drawn) [Compound 32] | 93% | 20% | –
COC(=O)c1ccc2nc(SCB(O)O)n(Cc3ccc(C(F)(F)F)cc3C(F)(F)F)c2c1 [Compound 33] | 95% | 13% | –
O=C(O)c1ccc2nc(SCB(O)O)n(Cc3ccc(C(F)(F)F)cc3C(F)(F)F)c2c1 [Compound 34] | 92% | 18% | –
COC(=O)c1ccc2nc(SC[B-]34OC(=O)C[N+]3(C)CC(=O)O4)n(Cc3ccc(C(F)(F)F)cc3C(F)(F)F)c2c1 (stereo not drawn) [Compound 35] | 98% | 33% | –
N#CCCSc1nc2ccc(C#N)cc2n1Cc1ccc(C(F)(F)F)cc1C(F)(F)F [Compound 36] | 90% | 40% | –
COC(=O)c1ccc2nc(SCCC#N)n(Cc3ccc(C(F)(F)F)cc3C(F)(F)F)c2c1 [Compound 38] | 89% | 16% | –
COC(=O)c1ccc2nc(SCCCC#N)n(Cc3ccc(C(F)(F)F)cc3C(F)(F)F)c2c1 [Compound 39] | 92% | 25% | –
OCc1nc2ccccc2n1Cc1ccc(C(F)(F)F)cc1C(F)(F)F [Compound 40] | 67% | 25% | –
FC(F)(F)c1ccc(Cn2c(CBr)nc3ccccc32)c(C(F)(F)F)c1 [Compound 41] | 78% | 36% | –

Compound | % Inhibition of BlaR [1] | % Inhibition of bacterial growth [2] | potentiation of the anti-S. aureus activities of MEM, OXA, FOX and CPT [3]
OB(O)Cc1nc2ccccc2n1Cc1ccc(C(F)(F)F)cc1C(F)(F)F [Compound 42] | 99% | 82% | –
OB(O)CCc1nc2ccccc2n1Cc1ccc(C(F)(F)F)cc1C(F)(F)F [Compound 46] | 0% | 49% | –
NCc1cn(Cc2ccc(C(F)(F)F)cc2C(F)(F)F)c(=S)[nH]1 [Compound 48] | 50% | 90% | –
NSc1nc([C@H](O)[C@H](O)CO)cn1Cc1ccccc1 [Compound 52] | 33% | 0% | –
O=S(=O)(O)c1nccn1Cc1ccc(C(F)(F)F)cc1C(F)(F)F [Compound 54] | 18% | 0% | –
N#Cc1cn(Cc2ccc(C(F)(F)F)cc2C(F)(F)F)cn1 [Compound 55] | 0% | 0% | –
O=S(=O)(Cl)c1nc(CO)cn1Cc1ccc(C(F)(F)F)cc1C(F)(F)F [Compound 57] | 83% | 0% | –
OCc1cn(Cc2ccc(C(F)(F)F)cc2C(F)(F)F)c(Cl)n1 [Compound 58] | 43% | 0% | –
O=S(=O)(O)c1nc(CO)cn1Cc1ccc(C(F)(F)F)cc1C(F)(F)F [Compound 60] | 0% | 0% | –
NCc1cn(Cc2ccc(C(F)(F)F)cc2C(F)(F)F)c(S(=O)(=O)O)n1 [Compound 63] | 50% | 18% | –
CC(C)(C)OC(=O)NCc1cn(Cc2ccc(C(F)(F)F)cc2C(F)(F)F)c(S(=O)(=O)O)n1 [Compound 64] | 75% | 40% | –
COc1ccc(CSc2nc(CNC(=O)OCc3ccccc3)cn2Cc2ccc(C(F)(F)F)cc2C(F)(F)F)cc1 [Compound 65] | 19% | 0% | –
O=C(O)c1cn(Cc2ccc(C(F)(F)F)cc2C(F)(F)F)c(S(=O)(=O)O)n1 [Compound 72] | 11% | 0% | –
OCC1NC(=S)N(Cc2ccc(C(F)(F)F)cc2C(F)(F)F)N1 (stereo not drawn) [Compound 77] | 71% | 30% | –
OCc1nn(Cc2ccc(C(F)(F)F)cc2C(F)(F)F)c(=S)[nH]1 [Compound 78] | 70% | 56% | –
OCC1NC(=S)N(c2ccc(C(F)(F)F)cc2)N1 (stereo not drawn) [Compound 79] | 75% | 65% | –
NCCN[C@H]1CC[C@H](CC(=O)N[C@H]2Cc3cccc(C(=O)O)c3OB2O)CC1 [taniborbactam] | – | – | no activity
O=C(O)C[C@@H]1CC[C@H](NC(=O)Cc2cccs2)B(O)O1 [vaborbactam] | – | – | no activity
